Test results from ChEMBL document CHEMBL5230131, “Modern trends in diuretics development” (Eur J Med Chem, 2020).

Key:
Pendrin [1] = biological target: T1, Pendrin (Mus musculus, UniProt Q9R155); experiment: Inhibition of mouse Pendrin stably expressed in FRT cells with YFP assessed as inhibition of pendrin mediated Cl-/SCN- exchange by fluorescence assay; format: cell-based
T1 sequence (Q9R155 whole entry): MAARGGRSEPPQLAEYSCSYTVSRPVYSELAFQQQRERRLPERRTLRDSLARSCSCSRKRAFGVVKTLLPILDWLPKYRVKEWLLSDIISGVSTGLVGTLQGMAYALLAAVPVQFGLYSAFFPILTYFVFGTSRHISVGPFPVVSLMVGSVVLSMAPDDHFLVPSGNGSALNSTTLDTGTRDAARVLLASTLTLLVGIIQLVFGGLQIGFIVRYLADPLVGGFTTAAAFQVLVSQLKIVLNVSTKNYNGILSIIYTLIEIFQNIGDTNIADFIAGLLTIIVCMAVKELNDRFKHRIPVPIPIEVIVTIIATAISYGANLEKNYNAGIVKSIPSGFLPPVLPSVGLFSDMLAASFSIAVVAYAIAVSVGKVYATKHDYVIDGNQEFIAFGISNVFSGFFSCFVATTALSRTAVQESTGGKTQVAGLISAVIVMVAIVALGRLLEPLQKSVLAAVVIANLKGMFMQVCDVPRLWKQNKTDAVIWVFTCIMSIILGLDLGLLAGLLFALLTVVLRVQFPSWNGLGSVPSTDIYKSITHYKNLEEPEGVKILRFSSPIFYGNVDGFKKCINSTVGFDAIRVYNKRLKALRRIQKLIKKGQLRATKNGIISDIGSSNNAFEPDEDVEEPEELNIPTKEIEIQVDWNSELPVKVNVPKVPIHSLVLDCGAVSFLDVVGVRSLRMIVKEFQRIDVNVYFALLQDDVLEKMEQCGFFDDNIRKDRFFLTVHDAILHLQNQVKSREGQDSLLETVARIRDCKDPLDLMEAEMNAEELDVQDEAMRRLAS

Pendrin [2] = biological target: T1, Pendrin; experiment: Inhibition of mouse Pendrin stably expressed in FRT cells with YFP assessed as inhibition of pendrin mediated Cl-/NO3- exchange by fluorescence assay; format: cell-based
Pendrin [3] = biological target: T1, Pendrin; experiment: Inhibition of mouse Pendrin stably expressed in FRT cells with YFP assessed as inhibition of pendrin mediated Cl-/HCO3- exchange by fluorescence assay; format: cell-based
Mus musculus [4] = experiment: Diuretic activity in CD-1 mouse assessed as increase in urine volume at 10 to 50 mg/kg,ip with short term administration of furosemide measured after 3 hrs; format: functional; conditions: dose 10-50 mg/kg
Mus musculus [5] = experiment: Diuretic activity in C57BL/6 mouse assessed as increase in urine volume at 10 to 50 mg/kg,ip with short term administration of furosemide measured after 3 hrs; format: functional; conditions: dose 10-50 mg/kg
Mus musculus [6] = experiment: Diuretic activity in CD-1 mouse assessed as increase in urine volume at 20 mg/kg,ip with long term administration of furosemide measured after 3 hrs; format: functional
Mus musculus [7] = experiment: Diuretic activity in C57BL/6 mouse assessed as increase in urine volume at 20 mg/kg,ip with long term administration of furosemide measured after 3 hrs; format: functional
Aquaporin-1 = biological target: T2, Aquaporin-1 (Homo sapiens, UniProt P29972); experiment: Agonist activity at human AQP1 water channel expressed in Xenopus laevis oocytes assessed as inhibition of AQP1-mediated osmotic swelling; format: cell-based, Oocyte
T2 sequence (P29972 whole entry): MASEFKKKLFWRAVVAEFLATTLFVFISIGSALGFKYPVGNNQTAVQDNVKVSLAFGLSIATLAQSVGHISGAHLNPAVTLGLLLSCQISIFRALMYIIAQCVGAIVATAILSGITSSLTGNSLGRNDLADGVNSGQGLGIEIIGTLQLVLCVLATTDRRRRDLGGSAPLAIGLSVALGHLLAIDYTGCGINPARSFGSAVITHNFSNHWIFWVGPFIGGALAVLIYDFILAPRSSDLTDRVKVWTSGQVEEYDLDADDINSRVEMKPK

IC50 (Pendrin [1]) [µM]	IC50 (Pendrin [2]) [µM]	IC50 (Pendrin [3]) [µM]	EC50 (Aquaporin-1) [µM]	Structure (SMILES)	Activity (Mus musculus [4]) [%]	Activity (Mus musculus [5]) [%]	Activity (Mus musculus [6]) [%]	Activity (Mus musculus [7]) [%]
9	5	10		Cc1n[nH]c(-c2cc(S(=O)(=O)NC3CCCc4ccccc43)c(C)s2)c1C (stereo not drawn)	30	30	60	60
			3.3	COC(=O)c1cc(S(=O)(=O)NCc2ccccc2)c(Cl)cc1NCc1ccco1				
